Laboratory results from patent publication US20230278972A1, “SUBSTITUTED HALOALKYL SULFONANILIDE HERBICIDES” (FMC Corporation, priority 2020, published 2023).

Experiments:
Assay type in all cases: in vivo
[1] = tested on: galium (catchweed bedstraw, Galium aparine); assay: Test A postemergence, galium; conditions: Postemergence, 0 to 100 scale (0 no effect, 100 complete control); for Galium plant response rating: visual injury vs untreated controls after approx. 10 days
Outline: (§1)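 After sowing into a sand-amended loam, pots for the preemergence test were treated by spraying directly onto soil. In parallel, seedlings at the one- to two-leaf stage and 2 to 10 cm tall were treated postemergence with the identical surfactant-containing formulation.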

[2] = tested on: barnyardgrass (Echinochloa crus-galli); assay: Test A preemergence, barnyardgrass; conditions: Preemergence; for Barnyardgrass plant response rating: visual injury on 0 to 100 scale (0 no effect, 100 complete control), approximately 10 days; for Plant response rating, Barnyardgrass: 0 to 100 scale (0 no effect, 100 complete control)
Outline: (§2)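 Directed soil spray at planting gave the preemergence treatment, while foliar application to one- to two-leaf seedlings (2–10 cm) gave the postemergence one; pots held a loam and sand mixture and chemicals were carried in a non-phytotoxic solvent with surfactant.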

[3] = tested on: Ryegrass, Italian (Italian ryegrass, Lolium multiflorum); assay: Test A postemergence, Ryegrass, Italian; conditions: Postemergence, 0 to 100 scale (0 no effect, 100 complete control); for Ryegrass, Italian plant response rating: visual injury vs untreated controls after approx. 10 days
Outline: as §2

[4] = tested on: pigweed (Amaranthus retroflexus); assay: Test A postemergence, pigweed; conditions: Postemergence, 0 to 100 scale (0 no effect, 100 complete control); for Pigweed plant response rating: visual injury vs untreated controls after approx. 10 days
Outline: as §2

[5] = tested on: blackgrass (Alopecurus myosuroides); assay: Test A postemergence, blackgrass; conditions: Postemergence, 0 to 100 scale (0 no effect, 100 complete control); for Blackgrass plant response rating: visual injury vs untreated controls after approx. 10 days
Outline: as §2

kochia (Bassia scoparia) [6] = assay: Test A postemergence, kochia; conditions: Postemergence, 0 to 100 scale (0 no effect, 100 complete control); for Kochia plant response rating: visual injury vs untreated controls after approx. 10 days
Outline: as §2

[7] = tested on: pigweed (Amaranthus retroflexus); assay: Test A preemergence, pigweed; conditions: for Pigweed plant response rating: visual injury on 0 to 100 scale (0 no effect, 100 complete control), approximately 10 days; for Plant response rating, Pigweed: 0 to 100 scale (0 no effect, 100 complete control)
Outline: as §1

corn (Zea mays) = assay: Test A postemergence, corn; conditions: Postemergence, 0 to 100 scale (0 no effect, 100 complete control); for Corn plant response rating: visual injury vs untreated controls after approx. 10 days
Outline: as §2

[8] = tested on: ragweed (common ragweed, Ambrosia artemisiifolia); assay: Test A preemergence, ragweed; conditions: Preemergence; for Ragweed plant response rating: visual injury on 0 to 100 scale (0 no effect, 100 complete control), approximately 10 days; for Plant response rating, Ragweed: 0 to 100 scale (0 no effect, 100 complete control)
Outline: as §2

[9] = tested on: Ryegrass, Italian (Italian ryegrass, Lolium multiflorum); assay: Test A preemergence, Ryegrass, Italian; conditions: Preemergence; for Ryegrass, Italian plant response rating: visual injury on 0 to 100 scale (0 no effect, 100 complete control), approximately 10 days; for Plant response rating, Ryegrass, Italian: 0 to 100 scale (0 no effect, 100 complete control)
Outline: as §2

kochia (Bassia scoparia) [10] = assay: Test A preemergence, kochia; conditions: Preemergence; for Kochia plant response rating: visual injury on 0 to 100 scale (0 no effect, 100 complete control), approximately 10 days; for Plant response rating, Kochia: 0 to 100 scale (0 no effect, 100 complete control)
Outline: as §2

[11] = tested on: Foxtail, Giant (giant foxtail, Setaria faberi); assay: Test A preemergence, Foxtail, Giant; conditions: Preemergence; for Foxtail, Giant plant response rating: visual injury on 0 to 100 scale (0 no effect, 100 complete control), approximately 10 days; for Plant response rating, Foxtail, Giant: 0 to 100 scale (0 no effect, 100 complete control)
Outline: as §2

[12] = tested on: barnyardgrass (Echinochloa crus-galli); assay: Test A postemergence, barnyardgrass; conditions: Postemergence, 0 to 100 scale (0 no effect, 100 complete control); for Barnyardgrass plant response rating: visual injury vs untreated controls after approx. 10 days
Outline: as §1

[13] = tested on: wheat (Triticum aestivum); assay: Test A postemergence, wheat; conditions: Postemergence, 0 to 100 scale (0 no effect, 100 complete control); for Wheat plant response rating: visual injury vs untreated controls after approx. 10 days
Outline: as §1

[14] = tested on: Foxtail, Giant (giant foxtail, Setaria faberi); assay: Test A postemergence, Foxtail, Giant; conditions: Postemergence, 0 to 100 scale (0 no effect, 100 complete control); for Foxtail, Giant plant response rating: visual injury vs untreated controls after approx. 10 days
Outline: as §2

[15] = tested on: ragweed (common ragweed, Ambrosia artemisiifolia); assay: Test A postemergence, ragweed; conditions: Postemergence, 0 to 100 scale (0 no effect, 100 complete control); for Ragweed plant response rating: visual injury vs untreated controls after approx. 10 days
Outline: as §2

[16] = 500 g ai/ha, visual injury approx. 10 days
[17] = 125 g ai/ha, visual injury, approx. 10 days
[18] = 125 g ai/ha, visual injury approx. 10 days
[19] = 1000 g ai/ha, visual injury, approx. 10 days

Cc1cc(C)c(N(S(=O)(=O)C(F)(F)F)S(=O)(=O)C(F)(F)F)cc1C1=NOC2(CCOCC2)C1 [Compound 178]
Plant response rating, Galium ([1]; 125 g ai/ha): 80 | Galium plant response rating ([1]; 500 g ai/ha): 90 | Barnyardgrass plant response rating ([2]; 125 g ai/ha): 90 | Plant response rating, Barnyardgrass ([2]; 500 g ai/ha): 100 | Plant response rating, Ryegrass, Italian ([3]; 125 g ai/ha): 0 | Ryegrass, Italian plant response rating ([3]; 500 g ai/ha): 30 | Plant response rating, Pigweed ([4]; 125 g ai/ha): 60 | Pigweed plant response rating ([4]; 500 g ai/ha): 90 | Plant response rating, Blackgrass ([5]; 125 g ai/ha): 0 | Blackgrass plant response rating ([5]; 500 g ai/ha): 0 | Plant response rating, Kochia (kochia (Bassia scoparia) [6]; 125 g ai/ha): 20 | Kochia plant response rating (kochia (Bassia scoparia) [6]; 500 g ai/ha): 70 | Pigweed plant response rating ([7]; 125 g ai/ha): 100 | Plant response rating, Pigweed ([7]; 500 g ai/ha): 100 | Plant response rating, Corn (corn (Zea mays); 125 g ai/ha): 0 | Corn plant response rating (corn (Zea mays); 500 g ai/ha): 10 | Ragweed plant response rating ([8]; 125 g ai/ha): 80 | Plant response rating, Ragweed ([8]; 500 g ai/ha): 90 | Ryegrass, Italian plant response rating ([9]; 125 g ai/ha): 90 | Plant response rating, Ryegrass, Italian ([9]; 500 g ai/ha): 100 | Kochia plant response rating (kochia (Bassia scoparia) [10]; 125 g ai/ha): 90 | Plant response rating, Kochia (kochia (Bassia scoparia) [10]; 500 g ai/ha): 100 | Foxtail, Giant plant response rating ([11]; 125 g ai/ha): 90 | Plant response rating, Foxtail, Giant ([11]; 500 g ai/ha): 100 | Plant response rating, Barnyardgrass ([12]; 125 g ai/ha): 40 | Barnyardgrass plant response rating ([12]; 500 g ai/ha): 90 | Plant response rating, Wheat ([13]; 125 g ai/ha): 10 | Wheat plant response rating ([13]; 500 g ai/ha): 30 | Plant response rating, Foxtail, Giant ([14]; 125 g ai/ha): 0 | Foxtail, Giant plant response rating ([14]; 500 g ai/ha): 20 | Plant response rating, Ragweed ([15]; 125 g ai/ha): 40 | Ragweed plant response rating ([15]; 500 g ai/ha): 80

Cc1cc(C)c(N2CCC3(CCCC3)C2=O)cc1NS(=O)(=O)C(F)(F)F [Compound 270]
Plant response rating, Galium ([1]; 125 g ai/ha): 80 | Plant response rating, Galium [1, 16]: 90 | Plant response rating, Barnyardgrass [2, 17]: 90 | Barnyardgrass plant response rating ([2]; 500 g ai/ha): 90 | Plant response rating, Ryegrass, Italian ([3]; 125 g ai/ha): 0 | Plant response rating, Ryegrass, Italian [3, 16]: 70 | Plant response rating, Pigweed ([4]; 125 g ai/ha): 60 | Plant response rating, Pigweed [4, 16]: 90 | Plant response rating, Blackgrass ([5]; 125 g ai/ha): 20 | Plant response rating, Blackgrass [5, 16]: 70 | Plant response rating, Kochia (kochia (Bassia scoparia) [6]; 125 g ai/ha): 10 | Plant response rating, Kochia (kochia (Bassia scoparia) [6]; [16]): 50 | Plant response rating, Pigweed [7, 17]: 70 | Pigweed plant response rating ([7]; 500 g ai/ha): 100 | Plant response rating, Corn (corn (Zea mays); 125 g ai/ha): 0 | Plant response rating, Corn (corn (Zea mays); [16]): 50 | Plant response rating, Ragweed [8, 17]: 0 | Ragweed plant response rating ([8]; 500 g ai/ha): 80 | Plant response rating, Ryegrass, Italian [9, 17]: 100 | Ryegrass, Italian plant response rating ([9]; 500 g ai/ha): 100 | Plant response rating, Kochia (kochia (Bassia scoparia) [10]; [17]): 0 | Kochia plant response rating (kochia (Bassia scoparia) [10]; 500 g ai/ha): 0 | Plant response rating, Foxtail, Giant [11, 17]: 100 | Foxtail, Giant plant response rating ([11]; 500 g ai/ha): 100 | Plant response rating, Barnyardgrass ([12]; 125 g ai/ha): 0 | Plant response rating, Barnyardgrass [12, 16]: 70 | Plant response rating, Wheat ([13]; 125 g ai/ha): 40 | Plant response rating, Wheat [13, 16]: 70 | Plant response rating, Foxtail, Giant ([14]; 125 g ai/ha): 0 | Plant response rating, Foxtail, Giant [14, 16]: 20 | Plant response rating, Ragweed ([15]; 125 g ai/ha): 30 | Plant response rating, Ragweed [15, 16]: 60

Cc1cc(C)c(-c2cc(Br)nn(C)c2=O)cc1NS(=O)(=O)C(F)(F)F [Compound 69]
Plant response rating, Galium [1, 18]: 60 | Galium plant response rating ([1]; 500 g ai/ha): 70 | Barnyardgrass plant response rating ([2]; 125 g ai/ha): 40 | Plant response rating, Barnyardgrass ([2]; 500 g ai/ha): 90 | Plant response rating, Ryegrass, Italian [3, 18]: 40 | Ryegrass, Italian plant response rating ([3]; 500 g ai/ha): 70 | Plant response rating, Pigweed [4, 18]: 70 | Pigweed plant response rating ([4]; 500 g ai/ha): 90 | Plant response rating, Blackgrass [5, 18]: 0 | Blackgrass plant response rating ([5]; 500 g ai/ha): 50 | Plant response rating, Kochia (kochia (Bassia scoparia) [6]; [18]): 40 | Kochia plant response rating (kochia (Bassia scoparia) [6]; 500 g ai/ha): 60 | Pigweed plant response rating ([7]; 125 g ai/ha): 80 | Plant response rating, Pigweed ([7]; 500 g ai/ha): 100 | Plant response rating, Corn (corn (Zea mays); [18]): 10 | Corn plant response rating (corn (Zea mays); 500 g ai/ha): 20 | Ragweed plant response rating ([8]; 125 g ai/ha): 50 | Plant response rating, Ragweed ([8]; 500 g ai/ha): 90 | Ryegrass, Italian plant response rating ([9]; 125 g ai/ha): 100 | Plant response rating, Ryegrass, Italian ([9]; 500 g ai/ha): 100 | Kochia plant response rating (kochia (Bassia scoparia) [10]; 125 g ai/ha): 70 | Plant response rating, Kochia (kochia (Bassia scoparia) [10]; 500 g ai/ha): 90 | Foxtail, Giant plant response rating ([11]; 125 g ai/ha): 100 | Plant response rating, Foxtail, Giant ([11]; 500 g ai/ha): 100 | Plant response rating, Barnyardgrass [12, 18]: 0 | Barnyardgrass plant response rating ([12]; 500 g ai/ha): 80 | Plant response rating, Wheat [13, 18]: 60 | Wheat plant response rating ([13]; 500 g ai/ha): 70 | Plant response rating, Foxtail, Giant [14, 18]: 80 | Foxtail, Giant plant response rating ([14]; 500 g ai/ha): 90 | Plant response rating, Ragweed [15, 18]: 60 | Ragweed plant response rating ([15]; 500 g ai/ha): 80

Cc1cc(C)c(C(=O)N2CCSCC2)cc1NS(=O)(=O)C(F)(F)F [Compound 12]
Plant response rating, Galium [1, 19]: 90 | Plant response rating, Barnyardgrass ([2]; 1000 g ai/ha): 100 | Plant response rating, Ryegrass, Italian [3, 19]: 90 | Plant response rating, Pigweed [4, 19]: 80 | Plant response rating, Blackgrass [5, 19]: 30 | Plant response rating, Kochia (kochia (Bassia scoparia) [6]; [19]): 70 | Plant response rating, Pigweed ([7]; 1000 g ai/ha): 100 | Plant response rating, Corn (corn (Zea mays); [19]): 20 | Plant response rating, Ryegrass, Italian ([9]; 1000 g ai/ha): 100 | Plant response rating, Kochia (kochia (Bassia scoparia) [10]; 1000 g ai/ha): 90 | Plant response rating, Foxtail, Giant ([11]; 1000 g ai/ha): 100 | Plant response rating, Barnyardgrass [12, 19]: 80 | Plant response rating, Wheat [13, 19]: 60 | Plant response rating, Foxtail, Giant [14, 19]: 90 | Plant response rating, Ragweed [15, 19]: 60
